Patent publication US20230049952A1, “METHODS AND COMPOUNDS FOR RESTORING MUTANT P53 FUNCTION” (PMV Pharmaceuticals, Inc., priority 2020, published 2023)

Test system: p53 signaling pathway in MT373 tumors
Assay: MT373 syngeneic sarcoma model: mouse p53 signaling pathway profiling panel
Format: in vivo
Conditions: for Actb* mRNA (housekeeping or reference gene), Fold Increase Over Vehicle Control or Percent Reduction Compared to Vehicle Control (%) / B2m* mRNA (housekeeping or reference gene), Fold Increase Over Vehicle Control or Percent Reduction Compared to Vehicle Control (%) / Gapdh* mRNA (housekeeping or reference gene), Fold Increase Over Vehicle Control or Percent Reduction Compared to Vehicle Control (%) / Gusb* mRNA (housekeeping or reference gene), Fold Increase Over Vehicle Control or Percent Reduction Compared to Vehicle Control (%) / Hsp90ab1* mRNA (housekeeping or reference gene), Fold Increase Over Vehicle Control or Percent Reduction Compared to Vehicle Control (%) / MGDC* (housekeeping or reference gene), Fold Increase Over Vehicle Control or Percent Reduction Compared to Vehicle Control (%) / Trp63 mRNA, Fold Increase Over Vehicle Control or Percent Reduction Compared to Vehicle Control (%) / Trp73 mRNA, Fold Increase Over Vehicle Control or Percent Reduction Compared to Vehicle Control (%) / Wt1 mRNA, Fold Increase Over Vehicle Control or Percent Reduction Compared to Vehicle Control (%) / Zmat3 mRNA, Fold Increase Over Vehicle Control or Percent Reduction Compared to Vehicle Control (%): MT373 tumors

## CCn1c(C#CCNc2ccccc2)cc2cc(CNC3CCN(C)CC3)ccc21 [Compound 1, 1-Anilino-3-{1-ethyl-5-[(1-methyl-4-piperidylamino)methyl]-1H-indol-2-yl}-2-propyne]
150 mg/kg BID×1, 24 h
  Il6 mRNA change: 85.31%
  Mdm2 mRNA increase: 5.96 fold
  Sesn2 mRNA increase: 2.45 fold
  Zmat3 mRNA increase: 6.17 fold
75 mg/kg BIDx1, 8 h
  Actb* mRNA (housekeeping or reference gene), Fold Increase Over Vehicle Control or Percent Reduction Compared to Vehicle Control (%): 1.60 fold or %
  B2m* mRNA (housekeeping or reference gene), Fold Increase Over Vehicle Control or Percent Reduction Compared to Vehicle Control (%): 1.16 fold or %
  Gapdh* mRNA (housekeeping or reference gene), Fold Increase Over Vehicle Control or Percent Reduction Compared to Vehicle Control (%): 11.24 fold or %
  Gusb* mRNA (housekeeping or reference gene), Fold Increase Over Vehicle Control or Percent Reduction Compared to Vehicle Control (%): 1.12 fold or %
  Hsp90ab1* mRNA (housekeeping or reference gene), Fold Increase Over Vehicle Control or Percent Reduction Compared to Vehicle Control (%): 10.06 fold or %
  MGDC* (housekeeping or reference gene), Fold Increase Over Vehicle Control or Percent Reduction Compared to Vehicle Control (%): 1.79 fold or %
  Trp63 mRNA, Fold Increase Over Vehicle Control or Percent Reduction Compared to Vehicle Control (%): 3.58 fold or %
  Trp73 mRNA, Fold Increase Over Vehicle Control or Percent Reduction Compared to Vehicle Control (%): 16.09 fold or %
  Wt1 mRNA, Fold Increase Over Vehicle Control or Percent Reduction Compared to Vehicle Control (%): 28.78 fold or %
  Zmat3 mRNA, Fold Increase Over Vehicle Control or Percent Reduction Compared to Vehicle Control (%): 6.25 fold or %
75 mg/kg BIDx1, 24 h
  Actb* mRNA (housekeeping or reference gene), Fold Increase Over Vehicle Control or Percent Reduction Compared to Vehicle Control (%): 1.08 fold or %
  B2m* mRNA (housekeeping or reference gene), Fold Increase Over Vehicle Control or Percent Reduction Compared to Vehicle Control (%): 1.14 fold or %
  Gapdh* mRNA (housekeeping or reference gene), Fold Increase Over Vehicle Control or Percent Reduction Compared to Vehicle Control (%): 13.68 fold or %
  Gusb* mRNA (housekeeping or reference gene), Fold Increase Over Vehicle Control or Percent Reduction Compared to Vehicle Control (%): 1.25 fold or %
  Hsp90ab1* mRNA (housekeeping or reference gene), Fold Increase Over Vehicle Control or Percent Reduction Compared to Vehicle Control (%): 17.39 fold or %
  MGDC* (housekeeping or reference gene), Fold Increase Over Vehicle Control or Percent Reduction Compared to Vehicle Control (%): 1.27 fold or %
  Trp63 mRNA, Fold Increase Over Vehicle Control or Percent Reduction Compared to Vehicle Control (%): 1.58 fold or %
  Trp73 mRNA, Fold Increase Over Vehicle Control or Percent Reduction Compared to Vehicle Control (%): 1.01 fold or %
  Wt1 mRNA, Fold Increase Over Vehicle Control or Percent Reduction Compared to Vehicle Control (%): 21.25 fold or %
  Zmat3 mRNA, Fold Increase Over Vehicle Control or Percent Reduction Compared to Vehicle Control (%): 4.14 fold
75 mg/kg BIDx1, 48 h
  Actb* mRNA (housekeeping or reference gene), Fold Increase Over Vehicle Control or Percent Reduction Compared to Vehicle Control (%): 1.07 fold or %
  B2m* mRNA (housekeeping or reference gene), Fold Increase Over Vehicle Control or Percent Reduction Compared to Vehicle Control (%): 1.27 fold or %
  Gapdh* mRNA (housekeeping or reference gene), Fold Increase Over Vehicle Control or Percent Reduction Compared to Vehicle Control (%): 34.54 fold or %
  Gusb* mRNA (housekeeping or reference gene), Fold Increase Over Vehicle Control or Percent Reduction Compared to Vehicle Control (%): 1.31 fold or %
  Hsp90ab1* mRNA (housekeeping or reference gene), Fold Increase Over Vehicle Control or Percent Reduction Compared to Vehicle Control (%): 12.45 fold or %
  MGDC* (housekeeping or reference gene), Fold Increase Over Vehicle Control or Percent Reduction Compared to Vehicle Control (%): 1.78 fold or %
  Trp63 mRNA, Fold Increase Over Vehicle Control or Percent Reduction Compared to Vehicle Control (%): 2.65 fold or %
  Trp73 mRNA, Fold Increase Over Vehicle Control or Percent Reduction Compared to Vehicle Control (%): 3.40 fold or %
  Wt1 mRNA, Fold Increase Over Vehicle Control or Percent Reduction Compared to Vehicle Control (%): 21.51 fold or %
  Zmat3 mRNA, Fold Increase Over Vehicle Control or Percent Reduction Compared to Vehicle Control (%): 1.02 fold or %
75 mg/kg BIDx1, 72 h
  Actb* mRNA (housekeeping or reference gene), Fold Increase Over Vehicle Control or Percent Reduction Compared to Vehicle Control (%): 1.06 fold or %
  B2m* mRNA (housekeeping or reference gene), Fold Increase Over Vehicle Control or Percent Reduction Compared to Vehicle Control (%): 1.11 fold or %
  Gapdh* mRNA (housekeeping or reference gene), Fold Increase Over Vehicle Control or Percent Reduction Compared to Vehicle Control (%): 14.41 fold or %
  Gusb* mRNA (housekeeping or reference gene), Fold Increase Over Vehicle Control or Percent Reduction Compared to Vehicle Control (%): 1.11 fold or %
  Hsp90ab1* mRNA (housekeeping or reference gene), Fold Increase Over Vehicle Control or Percent Reduction Compared to Vehicle Control (%): 7.83 fold or %
  MGDC* (housekeeping or reference gene), Fold Increase Over Vehicle Control or Percent Reduction Compared to Vehicle Control (%): 1.36 fold or %
  Trp63 mRNA, Fold Increase Over Vehicle Control or Percent Reduction Compared to Vehicle Control (%): 1.62 fold or %
  Trp73 mRNA, Fold Increase Over Vehicle Control or Percent Reduction Compared to Vehicle Control (%): 1.00 fold or %
